Data taken from the METLIN SMRT retention time set (Domingo-Almenara et al. 2019).

Assay: gradient 5% acetonitrile 3 min, to 50% in 2 min, to 85% in 15 min, held 3 min, 100 µL/min
Conditions: column: Zorbax Extend-C18 2.1 x 50 mm; eluents: water / acetonitrile, 0.1% formic acid
Outline: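 The mobile phases were water and acetonitrile, each with 0.1% formic acid, pumped at 100 μL/min through a Zorbax Extend-C18 column (2.1 × 50 mm, 1.8 μm). Pure standards were injected as mixtures of ~100 molecules and detected by a quadrupole time-of-flight mass spectrometer in positive and negative ionization mode. Retention time came from computationally picked adduct peaks, each inspected by hand.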

Row | Compound | RP-LC retention time [s]
1 | Fc1ccc(Nc2c(-c3ccccc3)nc3ccccn23)cc1 | 689
2 | CN1CCN(C(=O)c2ccc(S(=O)(=O)c3ccccc3)s2)CC1 | 605
3 | Cc1ccc(C(C)NC(=O)C2CCN(c3cnc4nccnc4c3)CC2)c(C)c1 (stereo not given) | 741
4 | Cc1ccc(-n2nc3c(N4CCCC(C(=O)N5CCc6ccccc65)C4)nnc(C)c3c2C)cc1 (stereo not given) | 830
5 | COc1ccc(CC(=O)NCC(c2ccsc2)N2CCc3ccccc3C2)cc1OC (stereo not given) | 573
6 | O=C(NCc1ccco1)C1CCN(c2cncnc2N2CCCCC2)CC1 | 646
7 | COCCNCc1ccc(-c2cc(Cl)ccc2Cl)o1 | 684
8 | O=C1CCCCC(C(=O)N2CCc3ccccc32)N1 (stereo not given) | 726
9 | COc1cc(OC)c(NC(=O)N2CCOc3ccccc32)cc1Cl | 1010
10 | CCCN(Cc1cccs1)C(=O)c1cc2c(=O)n(CCC)c3ccccc3n2n1 | 1140
11 | O=C([C@@H]1C[C@H](F)CN1C(=O)c1ccc(F)cc1)N1CCOCC1 | 608
12 | CCn1c(SCC(=O)Nc2nc(-c3ccccc3)cs2)nnc1-c1cc2ccccc2o1 | 1070
13 | Cn1c(=O)c(SCC(=O)NCc2ccccc2Cl)nc2cccnc21 | 786
14 | Cc1ccc2[nH]cc(CCN3CC(C(=O)N4CCCCCC4)CC3=O)c2c1 (stereo not given) | 800
15 | CCn1cc(CCNC(=O)CC2CCCC2)c2cccnc21 | 701
16 | CC(C)c1ccc(CNC(=O)CN2CCc3ccccc3C2C(=O)N2CCCC2)cc1 (stereo not given) | 908
17 | COC(=O)CCNC(=O)C1c2ccccc2C(=O)N(Cc2ccccc2)C12CCCC2 (stereo not given) | 840
18 | CC(C)n1nnc2cc(S(=O)(=O)N3CCCC(C(=O)N4CCN(c5ccccn5)CC4)C3)ccc21 (stereo not given) | 644
19 | Cc1nc(-c2cccnc2)sc1C(=O)/C=C/c1ccc(Cl)cc1Cl | 1150
20 | CCCn1cc(C(=O)Nc2ccc(S(N)(=O)=O)cc2)c(=O)c2ccc(C)nc21 | 867
21 | COCC(C)(O)CNC(=O)C(=O)NCc1ccc(C)cc1 (stereo not given) | 674

Row | Compound | RP-LC retention time [s]
22 | CN(CC1(C)CCOCC1)C(=O)COc1ccc(Cl)cc1 | 816
23 | C=CCn1nnc(NCc2ccc(-c3cccc(Cl)c3C)o2)n1 | 1090
24 | Cc1ccc(-c2noc(C3CCCN3S(=O)(=O)c3ccc(Cl)cc3C)n2)cc1 (stereo not given) | 1320
25 | Cc1ccc(S(=O)(=O)NC2CCN(C(=O)Cc3c[nH]c4ccccc34)CC2)cc1 | 775
26 | CCc1ccc(CNC(=O)Cn2c(C)nc3onc(CC)c3c2=O)cc1 | 885
27 | O=S(=O)(NCCC1=CCCCC1)c1ccccc1-c1nc(-c2cccc(F)c2)no1 | 1400
28 | CN1CCN(C(=O)c2cc(-c3ccccc3)cn2C)CC1 | 619
29 | Cc1nc2cc(-c3noc(-c4ccc(Cl)cc4Cl)n3)ccc2o1 | 1250
30 | CC(C)CCNC(=O)C1CC(=O)N(CCc2c[nH]c3ccc(Cl)cc23)C1 (stereo not given) | 809
31 | CCCC(=O)N1CC(c2nc(-c3ccc(F)cc3)no2)C2(CCOCC2)C1 (stereo not given) | 872
32 | O=C1CN(S(=O)(=O)c2ccccc2F)CC2(CCCCC2)N1C1CCCC1 | 1140
33 | Cc1cc(N2CCN(C)CC2)n2nc(CN3CCN(c4cccc(C)c4C)CC3)nc2n1 | 570
34 | CCOc1ccc(-c2ccc(=O)n(CCCC(=O)Nc3ccccc3SC)n2)cc1 | 853
35 | CCn1cc(-c2nc(CC(=O)Nc3ccc(OC)cc3)cs2)c2cccnc21 | 858
36 | Cc1ccccc1C(=O)NCc1nn(C)c2ccccc12 | 857
37 | COc1cc(C(=O)NCCc2c[nH]c3ccc(C)cc23)cc(OC)c1OC | 814
38 | CCN1C(=O)c2cccnc2Sc2cc(NC(=O)c3sccc3C)ccc21 | 842
39 | CCOC(=O)c1cc2c([nH]c1=O)CC(c1ccccc1)CC2=O (stereo not given) | 735
40 | Cc1ccc2[nH]cc(CCN3CC(C(=O)Nc4ccc(C)c(C)c4)CC3=O)c2c1 (stereo not given) | 910
41 | Cc1nn(CC(=O)NCCN(C)C)c(=O)c2cc(-c3ccccc3)nn12 | 625
42 | CCN1C(=O)C2(CCN(C(=O)NC3CCCCC3)CC2)c2ccccc21 | 867

Row | Compound | RP-LC retention time [s]
43 | COc1ccc(CNS(=O)(=O)c2c(C)nn(-c3ccc(-c4ccc(C)cc4)nn3)c2C)cc1 | 1070
44 | O=C(NCc1ccccc1)Nc1c(-c2ccc(F)cc2)nc2ccccn12 | 661
45 | Cc1nc2ccccc2c(=O)n1Cc1noc(C(=O)NCCC2=CCCCC2)n1 | 915
46 | Cc1noc(C)c1C1CCCN1C(=O)Cc1ccc(Cl)cc1 (stereo not given) | 809
47 | CC1(O)CCOC2(CCN(Cc3cn[nH]c3-c3ccccc3)CC2)C1 (stereo not given) | 584
48 | COc1ccccc1NC(=O)N1CCOc2ccc(C)cc21 | 1040
49 | CCCNC(=O)N(CC(=O)N1CCc2sccc2C1COc1ccccc1)CC1CCCO1 (stereo not given) | 911
50 | CCCn1c(=O)c(C)nc2cc(-c3noc(-c4ccc(F)c(F)c4)n3)ccc21 | 1230
51 | COc1cccc(C(=O)NC2CCN(c3cc(-c4cccs4)[nH]n3)C2)c1OC (stereo not given) | 722
52 | CCCCOc1ccc(-c2cc3c4nnc(CCC(=O)NCCc5cccs5)n4ccn3n2)cc1 | 943
53 | CCn1cc(C(=O)Nc2cccc(C)c2C)c2cccnc21 | 854
54 | CC1CCN(C(=O)C2CC(=O)N(CCc3c[nH]c4ccc(Cl)cc34)C2)CC1 (stereo not given) | 855
55 | Cc1sc(NC(=O)Cn2c(=O)sc3ccccc32)nc1-c1ccccc1 | 980
56 | COc1ccccc1-c1noc(-c2nnn(Cc3nc(-c4cccc(C)c4)oc3C)c2C)n1 | 1160
57 | Clc1cccc(CSc2nnc(-c3ccc(Br)cc3)o2)c1 | 1260
58 | O=C(CSc1ccncc1)N1CCCn2nc(-c3ccc(Cl)cc3)cc2C1 | 661
59 | O=C(CCNc1cnc2cnccn12)NCc1ccc(F)c(Cl)c1 | 601
60 | Fc1ccc(-c2nc(-c3cn(Cc4cccc(F)c4)nn3)no2)cc1 | 1010
61 | Cc1sc2ccn(Cc3ccc(F)cc3)c(=O)c2c1C(=O)NCc1cccs1 | 945
62 | CSc1cccc(NC(=O)N2CCC(N3CCN(Cc4ccccc4)C(=O)C3=O)CC2)c1 | 770

Now from value to compound:

Row | RP-LC retention time [s] | Compound
63 | 601 | COc1ccc(NC(=O)c2cn3c(n2)CCCC3)cc1F
64 | 630 | Cc1ccccc1NC(=O)Cn1nc2n(c1=O)CCCC2
65 | 572 | CCNc1cc(N2CCC(CCC(=O)NCCN3CCc4ccccc4C3)CC2)ncn1
66 | 1060 | CCCn1c(=O)sc2cc(S(=O)(=O)N3CCC(C(=O)Nc4ccc(C)c(F)c4)CC3)ccc21
67 | 1380 | CCCc1ccc(S(=O)(=O)N2CCCC2c2nc(-c3ccc(Cl)cc3)no2)cc1 (stereo not given)
68 | 695 | Cn1c(C2CCN(C(=O)Nc3cc(F)cc(F)c3)CC2)cc(=O)n2nccc12
69 | 809 | Cc1cc(C)cc(NC(=O)N2CCC(n3cnc4ccccc4c3=O)CC2)c1
70 | 980 | Cc1cc(C)cc(C(=O)N2CCCC(C(=O)NCCC3=CCCCC3)C2)c1 (stereo not given)
71 | 967 | Cc1ccc(Cn2c(N3CCCC(C(=O)NC4CCCC4)C3)nc3ccsc3c2=O)cc1 (stereo not given)
72 | 656 | Cc1ccc(S(=O)(=O)N2CCCC(CCC(=O)NCc3ccccn3)C2)cc1 (stereo not given)
73 | 1020 | Cc1cc2nn(CC(=O)Nc3ccc(F)c(F)c3)c(=O)n2c(Nc2ccc(F)cc2)n1
74 | 826 | CN(CCCNC(=O)C1CCCN(c2ncc(-c3ccccc3)cn2)C1)c1ccccc1 (stereo not given)
75 | 630 | CCc1ccc2[nH]c3c(c(=O)c2c1)CN(CC(=O)NC1CCCCC1)CC3
76 | 670 | CCNC(=O)C1CCCN(c2nc3ncn(CC(=O)Nc4ccc(F)cc4F)c(=O)c3s2)C1 (stereo not given)
77 | 834 | Cn1cc(C(=O)NCc2ccccc2)c(S(=O)(=O)N2CCSCC2)n1
78 | 979 | Cn1nc(-c2nc(-c3ccc(F)cc3)no2)c2c1CCN(C(=O)NC1CCCCC1)C2
79 | 651 | O=C(CN1C(=O)c2cccc3cccc(c23)C1=O)NCC1CCCO1 (stereo not given)
80 | 588 | CC(=O)Nc1ccc(N2CCN(C3CCCCC3)CC2)cc1C(=O)O
81 | 768 | CCc1csc(-c2cn(CC(=O)NCc3cccc(C(F)(F)F)c3)cn2)n1
82 | 808 | O=C(Nc1nc2ccccc2s1)C1CCN(C(=O)c2ccc(F)cc2)CC1
83 | 720 | C=CCNC(=O)Cn1c2c(c(=O)n3nc(-c4ccc(C)cc4)nc13)CCC2
84 | 950 | Cc1ccc(C)n1-c1nnc(N2CCCC(C(=O)NCCc3c[nH]c4ccccc34)C2)s1 (stereo not given)
85 | 796 | O=C(Cn1nc2c(Oc3ccccc3)nccn2c1=O)Nc1ccc(F)cc1Cl
86 | 744 | CCOC(=O)c1ccccc1NC(=O)Cn1cnc2nc(-c3cccnc3)ncc2c1=O
87 | 1100 | CCCCOC(=O)Cn1c(=O)c2c(nc3n2CCCCN3c2ccc(OCC)cc2)n(C)c1=O
88 | 596 | CCOC(=O)C1=C(CN2CCN(c3ccccn3)CC2)NC(=O)NC1c1ccccc1 (stereo not given)
89 | 588 | O=C(C1CCCN(c2nn3c(=O)c4c(nc3s2)CCCC4)C1)N1CCN(c2ccccn2)CC1 (stereo not given)
90 | 779 | Cc1cccc(C(=O)N2CCC3(CC2)NC(=O)c2cc(F)ccc2N3C)c1
